# Entries after “also recorded” stand apart in the source; their conditions may differ.
# Legend:
# miR-208a = assay: Real-time PCR of miR-208a in cardiac tissue, 4% NaCl diet (Example 1); assay type: in vivo, rat; settings: 4% NaCl HS diet, 2 weeks after last injection, 5 or 25 mg/kg antimiR, control 25 mg/kg
# Method: This regulation of miR-499 and miR-208b was confirmed by Northern blot analysis (FIG. 2B).
# (§1) For in vivo real-time PCR analysis, RNA was extracted from cardiac tissue using Trizol (Invitrogen) after which two μg RNA from each tissue sample was used to generate cDNA using Super Script II reverse transcriptase per manufacturer's specifications (Invitrogen). To detect the level of miR-208 RT-PCR was performed using the Taqman MicroRNA assay (Applied Biosystems, ABI) according the manufacturer's recommendations, using 10-100 ng of total RNA. The expression of a subset of genes was analyzed by quantitative real time PCR using Taqman probes purchased from ABI.
# [1] = test system: miR-208a, miR-499, miR-208b, Myh6, Myh7b, Myh7, Dynlt1, Vcpip, Tegt; assay: Cardiac tissue real-time PCR, 6% NaCl diet (Example 3); assay type: in vivo, rat
# Method: One week following the initiation of the 6.0% NaCl diet, rats were dosed subcutaneously (sc) with saline or oligonucleotides (M−10101, 5′-CTTTTTGCTCGTCTTA-3′ (SEQ ID NO: 12) or M-10591, 5′-TCCTAGAAAGAGTAGA-3′ (SEQ ID NO:13)) at 25 mg/kg every 2 weeks. Captopril or water were dosed daily by oral gavage. Echocardiography was performed every 2 weeks starting one week post […] dosing. The Captopril dose for rat was selected to match the standard human dose in man.
# as §1, with “AB.” for “ABI.”
# [2] = M-10101 25 mg/kg sc, Captopril po daily
substance,measurement,setting,value
"M-10101: antimiR targeting bases 2 to 17 of mature miR-208a, LNA and DNA linked by phosphorothioate bonds; 5′-CTTTTTGCTCGTCTTA-3′ (SEQ ID NO: 12) (all phosphorothioate, sugars by position and methylation of C not given here; LNA/DNA mixmer; listed as Homo sapiens)",miR-208a level in left and right ventricle,miR-208a; listed as Anti-miR-208a,dose-dependent inhibition
same,miR-208a level in left and right ventricle,miR-208a; listed as anti-miR-208a,dose-dependent reduction of miR-208a
same,"Expression of direct target genes of miR-208a (Dynlt1, Vcpip, Tegt) in cardiac tissue",[1]; 25 mg/kg sc,increase in expression
same,miR-208a cardiac level,[1]; 25 mg/kg sc every 2 weeks,further reduced
same,miR-208b cardiac level,[1]; 25 mg/kg sc every 2 weeks,reduction of cardiac levels
same,miR-499 cardiac level,[1]; 25 mg/kg sc every 2 weeks,reduction of cardiac levels
same,Myh7b levels in the heart,[1]; [2],specifically reduced
same,αMHC (Myh6) in the heart (reduced by HS diet),[1]; [2],normalized
same,βMHC (Myh7) expression (increase induced by HS diet),"[1]; M-10101 25 mg/kg sc, Captopril po daily, listed as antimiR-208a",more effective; also recorded: not significantly different from animals on the LS diet

# Reference: patent US20140024700A1, “BLOOD-BORNE MIRNAS AS SURROGATE MARKERS OF DRUG EFFICACY FOR CARDIAC CONDITIONS” (miRagen Therapeutics, Inc., priority 2010, published 2014)
